Converted amounts (≈) assume the structure as drawn. Like-named read-outs stand apart in the source and are kept apart here.
How the values were obtained:
hERG channel = hERG channel (Homo sapiens (Human), UniProt Q12809); experiment: hERG assay (QPatch, CHO cell line expressing hERG channels); format: cell-based; settings: for hERG: In vitro tox
Procedure: For hERG assays, a CHO cell line stably transfected with hERG cDNA and expressing hERG channels were seeded into a QPatch plate (Sophion) at a density of 3-8×10^6 cells/ml. The cells were voltage clamped at a holding potential of −80 mV. The hERG current was activated by depolarizing at +20 mV for 5 sec, after which the current was taken back to −50 mV for 5 sec to remove the inactivation and observe the deactivating tail current. The maximum amount of tail current size was used to determine hERG current amplitude. Six doses (30, 10, 3, 1, 0.3 and 0.1 μM) of Compound 003 were chosen to obtain fitting curves and IC50. Data were analyzed using Assay Software provided by Sophion and Graphpad Prism.

HDAC3 = HDAC3 (Homo sapiens (Human), UniProt O15379); experiment: HDAC enzyme assay, HDAC3; format: biochemical
Procedure: (§1) Compounds for testing were diluted in DMSO to 50 fold the final concentration and a ten point three fold dilution series was made. The compounds were diluted in assay buffer (50 mM HEPES, pH 7.4, 100 mM KCl, 0.001% Tween-20, 0.05% BSA, 20 μM tris(2-carboxyethyl)phosphine) to 6 fold their final concentration. The HDAC enzymes (purchased from BPS Biosciences) were diluted to 1.5 fold their final concentration in assay buffer and pre-incubated with the compounds for 24 hours prior to addition of the substrate.
(§2) The substrate tripeptide substrate 3 (synthesized in house) for each enzyme was equal to the Km as determined by a substrate titration curve. The substrates were diluted in assay buffer at 6× their final concentration with 0.3 μM sequencing grade trypsin (Sigma). The substrate/trypsin mix was added to the enzyme/compound mix, the plate was shaken for 60 seconds and placed into a Spectramax M5 microtiter plate reader. The development of fluorescence was monitored for 30 min and the linear rate of the reaction was calculated. The IC50 was determined using Graph Pad Prism by a four parameter curve fit. The IC50 values obtained for the compounds of this invention are found in Table 1. Examples of the curves are found in FIGS. 1 and 4.

[1] = tested on: fetal β-like globin (HbG, γ); experiment: Fetal globin induction assay in CD34+ cells isolated from human bone marrow; format: cell-based; settings: for Cell based assay potency: lowest concentration to achieve a 2 fold increase in fetal globin gene expression over baseline
Procedure: CD34+ cells isolated from human bone marrow were cultured in vitro using a method described by Bradner J E (Proc Natl Acad Sci USA. 2010 Jul. 13; 107(28):12617-22), which consists of a 7 day expansion phase in media that supports differentiation of cells towards the erythroid lineage followed by a differentiation phase for 3 days where erythroid cell development continues. At the end of the differentiation period these cells are primarily late erythroblasts. mRNA levels were determined by quantitative real time PCR using primer/probe sets designed to adult major β-globin (β), adult minor β-globin (δ), fetal β-like globin (HbG, γ), and embryonic β-like globin (ε). Protein levels were determined by flow cytometry using fluorescent antibodies against fetal hemoglobin (HbF) or adult hemoglobin (HbA).
In the experiment shown in FIG. 3, cells were differentiated in the presence of vehicle (DMSO) 0.3, 1 and 3 μM of Compound A, and of 0.3, 1, and 3 μM of Compound 003. In the experiment shown in FIG. 6, cells were differentiated in the presence of vehicle (DMSO) 0.3, 1 and 3 μM of Compound A, and of 0.3, 1, and 3 μM of Compound 005. Globin mRNA levels were determined at day 3 of differentiation.

Microsome stability = format: in vitro ADME
[2] = Rat cassette pharmacokinetics; format: in vivo; settings: male, SD, plasma; for bioavailability: 5 mg/kg, rat, oral AUC to IV AUC, dose adjusted; for AUC / Cmax / half-life / CL renal: rat cassette dosing; for AUC / Cmax / half-life: 5 mg/kg PO; for half-life: read-out: PO T½ (converted); for CL renal: IV 1 mg/kg, read-out: IV Clr. (converted)
Procedure: Male SD rats were fasted overnight. Compounds of the invention were dissolved in dimethyl acetamide at 10 times the final concentration, then Solutol HS 15 (BASF) was added to a final concentration of 10%. Finally 80% saline was added and vortexed to achieve a clear solution. For the IV dosing three animals were injected via the foot dorsal vein with 1 mg/kg compound. For the PO dosing 5 mg/kg of compound was delivered by oral gavage. Blood was collected via the tail vein into K2EDTA tubes at 5 minutes, 15 minutes, 30 minutes, 1 hour, 2 hours, 4 hours, 8 hours and 24 hours after dosing. The blood was centrifuged at 2000 g for 5 minutes at 4° C. to obtain plasma. The plasma was extracted with acetonitrile and the level of compound was analyzed by LC/MS/MS. The level of compound in plasma was calculated from a standard curve in rat plasma. The IV clearance and area under the curve were calculated using WinNonLin software. The dose adjusted area under the curve for the IV and oral dosing were used to calculate the oral bioavailability.

HDAC2 = HDAC2 (Homo sapiens (Human), UniProt Q92769); experiment: HDAC enzyme assay, HDAC2; format: biochemical
Procedure: as §1, §2

Solubility = format: physicochemical
HDAC1 = HDAC1 (Homo sapiens (Human), UniProt Q13547); experiment: HDAC enzyme assay, HDAC1; format: biochemical
Procedure: as §1, §2

[3] = tested on: CYP1A2, CYP2C9, CYP2C19, CYP3A4, CYP2D6; experiment: Cyp inhibition in human liver microsomes; format: in vitro ADME; settings: for Cyp: In vitro tox, human liver microsomes
Procedure: For Cyp inhibition, human live microsomes from BD Gentest were incubated with Compound 003 (10, 3.33, 1.11, 0.37, 0.12, 0.04, 0.01 μM) and substrate (CYP1A2: Phenacetin at 30 μM; CYP2C9: Diclofenac at 10 μM; CYP2C19: S-Mephenytoin at 35 μM; CYP3A4: Midazolam at 5 μM and Testosterone at 80 μM; CYP2D6: Bufuralol at 10 μM) for the following incubation times: CYP1A2, 2C9, 2D6: 10 minutes, 37° C.; CYP2C19: 45 minutes, 37° C.; CYP3A4: 5 minutes, 37° C. Substrate conversion was measured by liquid chromatography/mass spectrometry/mass spectrometry (LC/MS/MS). Inhibition was calculated by curve fitting in Graph Pad Prism.

[4] = tested on: bacterial tester strains TA98, TA100, TA1535 and TA97a and E. coli tester strain WP2 uvrA; experiment: Ames genotoxicity (bacterial reverse mutation)
Procedure: For genotoxicity, bacterial tester strains TA98, TA100, TA1535 and TA97a as described by Ames et al. (1975) and the E. coli tester strain WP2 uvrA as described by Green and Muriel (1976) were incubated with Compound 003 at 250, 75, 25, 7.5, 2.5, 0.75, 0.25, and 0.075 μg/well in 24 well plates either with or without liver homogenate (S9) purchased commercially (MolTox; Boone, N.C.) prepared from male Sprague Dawley rats that have been injected intraperitonealy with Aroclor 1254 (200 mg/mL in corn oil), at a dose of 500 mg/kg, 5 days before sacrifice. Mutagenicity is evaluated by counting the number of colonies that form on non-permissive media.

[5] = tested on: human peripheral blood lymphocytes (HPBL); experiment: Micronucleus formation assay; format: cell-based
Procedure: Genotoxicity was further evaluated by micronucleus formation assay in human peripheral blood lymphocytes (HPBL). HPBL were obtained from healthy donors and exposed to Compound 003 at […] for 4 hours with or without S9 activation. The cells were washed with PBS and incubated in complete medium with 6 μg/ml cytocholasin B for 24 hours. The cells were then lysed, fixed, and mounted on microscope slides. The number of mononucleated, binucleated, and micronucleated cells was counted under blinded conditions.

Gata2 mRNA = Gata2 mRNA induction in erythroid progenitors; format: cell-based, human; settings: primary erythroid progenitors, 3 days differentiation, relative to beta-actin mRNA (FIG. 7)
Excerpt: Human bone marrow derived CD34+ cells were expanded for 7 days as described by Sankaran et al., Science, vol. 322(5909), pp. 1839-42 (2008). Cells were then differentiated, in the presence of the indicated concentration of Compound 005, Compound A (another known HDAC1/2 inhibitor), or vehicle control (DMSO), for 3 days in media supporting erythropoiesis (Hu et al., “Isolation and functional characterization of human erythroblasts at distinct stages: implications for understanding of normal and disordered erythropoiesis in vivo”, Blood, vol. 121(16), pp. 3246-53 ([…])). Gata2 mRNA was determined using quantitative real time PCR and expressed relative to the level beta-actin mRNA control.

[6] = 24 hours pre-incubation with enzyme, read-out: IC50 (nM) HDAC3
[7] = 24 hours pre-incubation with enzyme, read-out: IC50 (nM) HDAC2
[8] = 24 hours pre-incubation with enzyme, read-out: IC50 (nM) HDAC1

Sequence of HDAC1 (Q13547 whole entry): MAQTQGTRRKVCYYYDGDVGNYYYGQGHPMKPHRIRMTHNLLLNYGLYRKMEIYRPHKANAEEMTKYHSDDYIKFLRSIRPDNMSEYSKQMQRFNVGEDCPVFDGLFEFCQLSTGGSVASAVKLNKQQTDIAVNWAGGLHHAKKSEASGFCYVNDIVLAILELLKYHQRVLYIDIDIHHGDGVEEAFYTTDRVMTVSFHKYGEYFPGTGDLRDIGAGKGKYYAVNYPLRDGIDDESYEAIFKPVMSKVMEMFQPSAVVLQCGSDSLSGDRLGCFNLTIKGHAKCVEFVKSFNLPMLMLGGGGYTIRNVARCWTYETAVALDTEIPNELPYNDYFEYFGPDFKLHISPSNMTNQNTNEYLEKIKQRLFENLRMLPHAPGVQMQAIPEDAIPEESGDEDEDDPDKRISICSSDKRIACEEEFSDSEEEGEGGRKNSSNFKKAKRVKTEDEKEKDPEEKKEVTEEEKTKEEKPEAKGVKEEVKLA
Sequence of HDAC3 (O15379 whole entry): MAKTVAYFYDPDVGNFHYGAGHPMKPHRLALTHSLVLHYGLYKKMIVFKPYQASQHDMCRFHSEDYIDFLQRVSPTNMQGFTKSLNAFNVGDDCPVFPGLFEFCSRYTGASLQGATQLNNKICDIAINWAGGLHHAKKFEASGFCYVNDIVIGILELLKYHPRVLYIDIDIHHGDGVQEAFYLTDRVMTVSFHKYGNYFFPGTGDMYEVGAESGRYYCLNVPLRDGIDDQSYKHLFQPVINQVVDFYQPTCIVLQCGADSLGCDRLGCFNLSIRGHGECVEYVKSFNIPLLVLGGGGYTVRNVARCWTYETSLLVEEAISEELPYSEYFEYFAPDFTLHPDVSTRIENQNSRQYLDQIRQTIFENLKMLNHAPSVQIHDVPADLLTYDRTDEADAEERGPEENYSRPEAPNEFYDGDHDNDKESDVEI
Sequence of HDAC3 (Q9Y618 395-489 partner): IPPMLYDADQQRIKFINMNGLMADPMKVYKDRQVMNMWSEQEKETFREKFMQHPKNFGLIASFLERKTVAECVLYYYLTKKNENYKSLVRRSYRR
Sequence of hERG channel (Q12809 whole entry): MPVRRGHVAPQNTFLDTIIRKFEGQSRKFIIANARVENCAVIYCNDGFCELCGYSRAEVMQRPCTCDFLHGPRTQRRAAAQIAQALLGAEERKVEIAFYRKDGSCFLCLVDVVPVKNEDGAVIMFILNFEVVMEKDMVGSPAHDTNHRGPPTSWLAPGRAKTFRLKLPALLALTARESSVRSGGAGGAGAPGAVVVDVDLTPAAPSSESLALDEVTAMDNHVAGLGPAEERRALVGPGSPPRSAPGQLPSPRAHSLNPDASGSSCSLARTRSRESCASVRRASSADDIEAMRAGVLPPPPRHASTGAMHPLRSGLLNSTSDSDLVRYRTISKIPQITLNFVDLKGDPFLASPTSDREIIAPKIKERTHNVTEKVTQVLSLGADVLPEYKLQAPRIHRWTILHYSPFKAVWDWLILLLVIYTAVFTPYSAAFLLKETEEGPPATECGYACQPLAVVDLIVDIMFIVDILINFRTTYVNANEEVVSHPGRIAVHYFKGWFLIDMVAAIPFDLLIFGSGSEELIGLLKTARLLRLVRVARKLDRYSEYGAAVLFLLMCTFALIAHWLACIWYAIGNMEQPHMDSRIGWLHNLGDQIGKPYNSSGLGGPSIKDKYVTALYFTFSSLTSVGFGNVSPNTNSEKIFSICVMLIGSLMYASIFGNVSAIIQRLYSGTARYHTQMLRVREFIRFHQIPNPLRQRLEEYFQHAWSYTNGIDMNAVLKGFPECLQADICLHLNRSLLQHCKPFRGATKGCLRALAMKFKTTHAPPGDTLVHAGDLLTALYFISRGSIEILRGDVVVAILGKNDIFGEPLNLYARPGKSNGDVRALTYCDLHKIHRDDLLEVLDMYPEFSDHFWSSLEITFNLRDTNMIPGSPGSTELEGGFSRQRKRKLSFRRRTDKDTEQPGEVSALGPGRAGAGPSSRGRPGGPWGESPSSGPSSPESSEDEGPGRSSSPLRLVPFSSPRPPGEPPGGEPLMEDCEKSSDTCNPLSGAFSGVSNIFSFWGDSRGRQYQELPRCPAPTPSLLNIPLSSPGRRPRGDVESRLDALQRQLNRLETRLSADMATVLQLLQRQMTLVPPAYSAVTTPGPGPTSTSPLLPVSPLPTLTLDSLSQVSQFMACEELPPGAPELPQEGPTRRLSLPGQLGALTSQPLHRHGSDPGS
Sequence of HDAC2 (Q92769 whole entry): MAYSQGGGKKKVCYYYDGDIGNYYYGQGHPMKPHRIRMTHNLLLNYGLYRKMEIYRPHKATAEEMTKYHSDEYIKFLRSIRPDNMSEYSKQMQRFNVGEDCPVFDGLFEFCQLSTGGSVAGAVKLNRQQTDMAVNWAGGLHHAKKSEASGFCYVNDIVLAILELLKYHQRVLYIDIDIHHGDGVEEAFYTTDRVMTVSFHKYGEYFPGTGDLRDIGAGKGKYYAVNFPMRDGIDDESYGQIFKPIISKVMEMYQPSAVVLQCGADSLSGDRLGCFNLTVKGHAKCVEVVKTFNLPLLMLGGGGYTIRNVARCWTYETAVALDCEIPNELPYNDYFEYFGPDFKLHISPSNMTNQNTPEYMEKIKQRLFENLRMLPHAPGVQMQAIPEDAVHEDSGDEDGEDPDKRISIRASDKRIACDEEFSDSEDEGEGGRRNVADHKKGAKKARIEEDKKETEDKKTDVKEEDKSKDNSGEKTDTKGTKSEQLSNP

CC(C)NC(=O)N1CCC(C)(Nc2ncc(C(=O)Nc3cc(-c4cccs4)ccc3N)cn2)CC1 [Compound 001]
hERG (hERG channel): >30 µM | IC50 (HDAC3; [6]): 427 nM | Cell based assay potency [1]: 3000 nM | Microsome stability (Microsome stability): 11 min | bioavailability [2]: 63% | AUC [2]: 5960 ng·h/mL | Cmax [2]: 988 ng/mL | half-life [2]: 3.8 h | CL renal [2]: 8.83 mL/min/kg | IC50 (HDAC2; [7]): 38 nM | solubility (Solubility): 16.9 µM (≈ 8.34 µg/mL) | IC50 (HDAC1; [8]): 6.5 nM

CC(C)C1(Nc2ncc(C(=O)Nc3cc(-c4cccs4)ccc3N)cn2)CCN(C(=O)N2CCN(C)CC2)CC1 [Compound 002]
Cyp [3]: >10 µM | hERG (hERG channel): >30 µM | IC50 (HDAC3; [6]): 203 nM | Cell based assay potency [1]: 3000 nM | bioavailability [2]: 142% | AUC [2]: 6090 ng·h/mL | Cmax [2]: 1010 ng/mL | half-life [2]: 5.9 h | CL renal [2]: 20 mL/min/kg | IC50 (HDAC2; [7]): 28 nM | solubility (Solubility): 42.7 µM (≈ 24 µg/mL) | IC50 (HDAC1; [8]): 7 nM

Nc1ccc(-c2cccs2)cc1NC(=O)c1cnc(NC2CCN(C(=O)N3CCOCC3)CC2)nc1 [Compound 003]
Cyp [3]: >10 µM | inhibition of activity of any Cyp ([3]; up to 10 μM): did not inhibit | hERG (hERG channel): >30 µM | inhibition of the activity of the hERG channel (hERG channel; at the highest concentration of 30 μM): did not inhibit | Ames ([4]; In vitro tox): Neg | number of revertant colonies ([4]; any strain, with or without S9 activation): did not increase | MN ([5]; In vitro tox): Neg | number of micronucleated cells ([5]; any concentration, 4 hours with or without S9 activation): did not increase | IC50 (HDAC3; [6]): 204 nM | Cell based assay potency [1]: 3000 nM | Microsome stability (Microsome stability): 4.7 min | bioavailability [2]: 118% | AUC [2]: 59900 ng·h/mL | Cmax [2]: 2320 ng/mL | half-life [2]: 17 h | CL renal [2]: 2 mL/min/kg | IC50 (HDAC2; [7]): 56 nM | solubility (Solubility): 54 µM (≈ 27.4 µg/mL) | IC50 (HDAC1; [8]): 15 nM

Nc1ccc(-c2cccs2)cc1NC(=O)c1ccc2nc(N3CCNCC3)ccc2c1 [Compound A, reference compound]
IC50 (HDAC3; reference compound, read-out: IC50 for HDAC3): ~114 nM | induction of % HbG ([1]; primary erythroid progenitors, 3 days differentiation (FIG. 6)): equivalent dose and time-dependent induction | IC50 (HDAC2; reference compound, read-out: IC50 for HDAC2): ~15 nM | induction of Gata2 mRNA (Gata2 mRNA): equivalent dose and time-dependent induction | IC50 (HDAC1; reference compound, read-out: IC50 for HDAC1): ~4 nM

Reference: patent US9790180B2, “Piperidine derivatives as HDAC1/2 inhibitors” (Acetylon Pharmaceuticals, Inc., priority 2014, dated 2017)
